Laboratory results from patent US10508104B2, “6-hydroxy-5-(phenyl/heteroarylsulfonyl)pyrimidin-4(1H)-one as APJ agonists” (Bristol-Myers Squibb Company, priority 2016, dated 2019).

Target: human APJ receptor (Homo sapiens (Human), UniProt P35414)
Test: Intracellular cAMP accumulation assay (APJ hcAMP, HTRF)
Type: cell-based
Conditions: HEK293 cells stably expressing human APJ receptor; inhibition of forskolin-mediated cAMP production; read-out: Human APJ cAMP EC50 Potency range
Outline: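 HEK293 cells stably expressing human APJ, 5,000 per well, incubated 30 min at rt with compound, […] and 2 μM forskolin. cAMP measured by HTRF against a cAMP standard curve as inhibition of forskolin-driven production. EC50 from variable-slope sigmoidal fit.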

human APJ receptor, sequence (P35414 whole entry): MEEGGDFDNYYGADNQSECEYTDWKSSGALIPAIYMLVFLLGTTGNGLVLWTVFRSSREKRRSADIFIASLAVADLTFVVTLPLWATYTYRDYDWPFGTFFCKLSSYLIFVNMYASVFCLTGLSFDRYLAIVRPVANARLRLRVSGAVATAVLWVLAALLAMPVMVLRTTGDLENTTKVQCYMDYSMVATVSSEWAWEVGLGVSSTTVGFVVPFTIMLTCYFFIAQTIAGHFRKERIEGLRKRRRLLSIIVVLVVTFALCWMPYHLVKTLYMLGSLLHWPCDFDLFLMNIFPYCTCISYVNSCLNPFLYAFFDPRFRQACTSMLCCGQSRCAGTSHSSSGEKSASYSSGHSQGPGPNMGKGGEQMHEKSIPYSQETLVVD

Row | EC50 | SMILES
1 | 0.01 to 10 nM | COC[C@@H](c1ccccc1)n1c(COC(C)C)nc(=O)c(S(=O)(=O)c2ccc(-c3ccncc3C#N)cc2)c1O [Example 406, 4-[4-({6-hydroxy-1-[(1R)-2-methoxy-1-phenylethyl]-4-oxo-2-[(propan-2-yloxy)methyl]-1,4-dihydropyrimidin-5-yl}sulfonyl)phenyl]pyridine-3-carbonitrile]
2 | 0.01 to 10 nM | COC[C@@H](c1cc(F)cc(F)c1)n1c(COC(C)C)nc(=O)c(S(=O)(=O)c2ccc(-c3cnccc3C#N)cc2)c1O [Example 407, 3-[4-({1-[(1R)-1-(3,5-difluorophenyl)-2-methoxyethyl]-6-hydroxy-4-oxo-2-[(propan-2-yloxy)methyl]-1,4-dihydropyrimidin-5-yl}sulfonyl)phenyl] pyridine-4-carbonitrile]
3 | 0.01 to 10 nM | COC[C@@H](c1cc(F)cc(F)c1)n1c(COC(C)C)nc(=O)c(S(=O)(=O)c2ccc(-c3cccn(C)c3=O)cc2)c1O [Example 408, 1-[(1R)-1-(3,5-difluorophenyl)-2-methoxyethyl]-6-hydroxy-5-[4-(1-methyl-2-oxo-1,2-dihydropyridin-3-yl)benzenesulfonyl]-2-[(propan-2-yloxy)methyl]-1,4-dihydropyrimidin-4-one]
4 | 0.01 to 10 nM | COC[C@@H](c1ccccc1)n1c(COC(C)C)nc(=O)c(S(=O)(=O)c2ccc(-c3cnccc3C#N)c(F)c2)c1O [Example 409, 3-[2-fluoro-4-({6-hydroxy-1-[(1R)-2-methoxy-1-phenylethyl]-4-oxo-2-[(propan-2-yloxy)methyl]-1,4-dihydropyrimidin-5-yl}sulfonyl)phenyl]pyridine-4-carbonitrile]
5 | 0.01 to 10 nM | CC[C@@H](c1cccc(C#N)c1)n1c(COC(C)C)nc(=O)c(S(=O)(=O)c2ccc(-c3cnccc3C#N)cc2)c1O [Example 410, 3-[4-({1-[(1S)-1-(3-cyanophenyl)propyl]-6-hydroxy-4-oxo-2-[(propan-2-yloxy)methyl]-1,4-dihydropyrimidin-5-yl}sulfonyl)phenyl]pyridine-4-carbonitrile]
6 | 0.01 to 10 nM | COC[C@@H](c1cccc(C#N)c1)n1c(COC(C)C)nc(=O)c(S(=O)(=O)c2ccc(-c3cnccc3C#N)cc2)c1O [Example 411, 3-[4-({1-[(1R)-1-(3-cyanophenyl)-2-methoxyethyl]-6-hydroxy-4-oxo-2-[(propan-2-yloxy)methyl]-1,4-dihydropyrimidin-5-yl}sulfonyl)phenyl]pyridine-4-carbonitrile]
7 | 0.01 to 10 nM | CCCCc1nc(=O)c(S(=O)(=O)c2ccc(-c3ccnc(F)c3C)cc2)c(O)n1[C@@H](COC)c1cccc(C(N)=O)c1 [Example 412, 3-[(1R)-1-{2-butyl-5-[4-(2-fluoro-3-methylpyridin-4-yl)benzenesulfonyl]-6-hydroxy-4-oxo-1,4-dihydropyrimidin-1-yl}-2-methoxyethyl]benzamide]
8 | 0.01 to 10 nM | COC[C@@H](c1ccccc1)n1c(COC(C)C)nc(=O)c(S(=O)(=O)c2ccc(-c3cnccc3C#N)cc2)c1O [Example 413, 3-[4-({6-hydroxy-1-[(1R)-2-methoxy-1-phenylethyl]-4-oxo-2-[(propan-2-yloxy)methyl]-1,4-dihydropyrimidin-5-yl}sulfonyl)phenyl] pyridine-4-carbonitrile]
9 | 0.01 to 10 nM | CC(C)OCc1nc(=O)c(S(=O)(=O)c2ccc(-c3cnccc3C#N)cc2)c(O)n1[C@H](c1cccc(C#N)c1)C1CC1 [Example 414, 3-[4-({1-[(S)-(3-cyanophenyl)(cyclopropyl)methyl]-6-hydroxy-4-oxo-2-[(propan-2-yloxy)methyl]-1,4-dihydropyrimidin-5-yl}sulfonyl)phenyl] pyridine-4-carbonitrile]
10 | 0.01 to 10 nM | Cc1cnccc1-c1ccc(S(=O)(=O)c2c(O)n([C@H](c3cccc(C#N)c3)C3CC3)c(COC(C)C)nc2=O)cc1 [Example 415, 3-[(S)-cyclopropyl({6-hydroxy-5-[4-(3-methylpyridin-4-yl)benzenesulfonyl]-4-oxo-2-[(propan-2-yloxy)methyl]-1,4-dihydropyrimidin-1-yl})methyl]benzonitrile]
11 | 0.01 to 10 nM | CC(C)OCc1nc(=O)c(S(=O)(=O)c2ccc(-c3ccncc3C#N)cc2)c(O)n1[C@H](c1cccc(C#N)c1)C1CC1 [Example 416, 4-[4-({1-[(S)-(3-cyanophenyl)(cyclopropyl)methyl]-6-hydroxy-4-oxo-2-[(propan-2-yloxy)methyl]-1,4-dihydropyrimidin-5-yl}sulfonyl)phenyl]pyridine-3-carbonitrile]
12 | 0.01 to 10 nM | CC(C)OCc1nc(=O)c(S(=O)(=O)c2ccc(-c3ccc(F)cc3C(N)=O)cc2)c(O)n1[C@H](c1cccc(C#N)c1)C1CC1 [Example 417, 4′-({1-[(S)-(3-cyanophenyl)(cyclopropyl)methyl]-6-hydroxy-4-oxo-2-[(propan-2-yloxy)methyl]-1,4-dihydropyrimidin-5-yl}sulfonyl)-4-fluoro-[1,1′-biphenyl]-2-carboxamide]
13 | 0.01 to 10 nM | CC(C)OCc1nc(=O)c(S(=O)(=O)c2ccc(-c3ccccc3C(N)=O)cc2)c(O)n1[C@H](c1cccc(C#N)c1)C1CC1 [Example 418, 4′-({1-[(S)-(3-cyanophenyl)(cyclopropyl)methyl]-6-hydroxy-4-oxo-2-[(propan-2-yloxy)methyl]-1,4-dihydropyrimidin-5-yl}sulfonyl)-[1,1′-biphenyl]-2-carboxamide]
14 | 0.01 to 10 nM | Cc1c(-c2ccc(S(=O)(=O)c3c(O)n([C@H](c4cccc(C#N)c4)C4CC4)c(COC(C)C)nc3=O)cc2)ccnc1F [Example 419, 3-[(S)-cyclopropyl({5-[4-(2-fluoro-3-methylpyridin-4-yl)benzenesulfonyl]-6-hydroxy-4-oxo-2-[(propan-2-yloxy)methyl]-1,4-dihydropyrimidin-1-yl})methyl]benzonitrile]
15 | 0.01 to 10 nM | CNC(=O)c1ccccc1-c1ccc(S(=O)(=O)c2c(O)n([C@H](c3cccc(C#N)c3)C3CC3)c(COC(C)C)nc2=O)cc1 [Example 420, 4′-({1-[(S)-(3-cyanophenyl)(cyclopropyl)methyl]-6-hydroxy-4-oxo-2-[(propan-2-yloxy)methyl]-1,4-dihydropyrinudin-5-yl}sulfonyl)-N-methyl-[1,1′-biphenyl]-2-carboxamide]
16 | 0.01 to 10 nM | CCOCc1nc(=O)c(S(=O)(=O)c2ccc(-c3ccccc3C(=O)NC)cc2)c(O)n1[C@H]1CCc2ccccc21 [Example 421, 4′-({1-[(1S)-2,3-dihydro-1H-inden-1-yl]-2-(ethoxymethyl)-6-hydroxy-4-oxo-1,4-dihydropyrimidin-5-yl}sulfonyl)-N-methy1-[1,1′-biphenyl]-2-carboxamide]
17 | 0.01 to 10 nM | CC[C@@H](c1ccccc1)n1c(COC(C)C)nc(=O)c(S(=O)(=O)c2ccc(-c3ccccc3C(=O)NC)cc2)c1O [Example 422, 4′-({6-hydroxy-4-oxo-1-[(1S)-1-phenylpropyl]-2-[(propan-2-yloxy)methyl]-1,4-dihydropyrimidin-5-yl}sulfonyl)-N-methy1-[1,1′-biphenyl]-2-carboxamide]
18 | 0.01 to 10 nM | CCCCc1nc(=O)c(S(=O)(=O)c2ccc(-c3ccncc3C)cc2)c(O)n1[C@@H](CC)c1ccc(F)cc1 [Example 423, 2-butyl-1-[(1S)-1-(4-fluorophenyl)propyl]-6-hydroxy-5-[4-(3-methylpyridin-4-yl)benzenesulfonyl]-1,4-dihydropyrimidin-4-one]
19 | 0.01 to 10 nM | CCCCc1nc(=O)c(S(=O)(=O)c2ccc(-c3ccnc(F)c3C)cc2)c(O)n1[C@@H](CC)c1ccc(F)cc1 [Example 424, 2-butyl-5-[4-(2-fluoro-3-methylpyridin-4-yl)benzenesulfonyl]-1-[(1S)-1-(4-fluorophenyl)propyl]-6-hydroxy-1,4-dihydropyrimidin-4-one]
20 | 0.01 to 10 nM | CCCCc1nc(=O)c(S(=O)(=O)c2ccc(-c3cccnc3C)cc2)c(O)n1[C@@H](CC)c1ccc(F)cc1 [Example 425, 2-butyl-1-[(1S)-1-(4-fluorophenyl)propyl]-6-hydroxy-5-[4-(2-methylpyridin-3-yl)benzenesulfonyl]-1,4-dihydropyrimidin-4-one]
21 | 0.01 to 10 nM | CCCCc1nc(=O)c(S(=O)(=O)c2ccc(-c3ccc(F)nc3C)cc2)c(O)n1[C@@H](CC)c1ccc(F)cc1 [Example 426, 2-butyl-5-[4-(6-fluoro-2-methylpyridin-3-yl)benzenesulfonyl]-1-[(1S)-1-(4-fluorophenyl)propyl]-6-hydroxy-1,4-dihydropyrimidin-4-one]
22 | 0.01 to 10 nM | CCCCc1nc(=O)c(S(=O)(=O)c2ccc(-c3ccncc3C)cc2)c(O)n1[C@@H](CC)c1cc(F)cc(F)c1 [Example 427, 2-butyl-1-[(1S)-1-(3,5-difluorophenyl)propyl]-6-hydroxy-5-[4-(3-methylpyridin-4-yl)benzenesulfonyl]-1,4-dihydropyrimidin-4-one]
23 | 0.01 to 10 nM | CCCCc1nc(=O)c(S(=O)(=O)c2ccc(-c3cccnc3C)cc2)c(O)n1[C@@H](CC)c1ccccc1F [Example 430, 2-butyl-1-[(1S)-1-(2-fluorophenyl)propyl]-6-hydroxy-5-[4-(2-methylpyridin-3-yl)benzenesulfonyl]-1,4-dihydropyrimidin-4-one]
24 | 0.01 to 10 nM | CCCCc1nc(=O)c(S(=O)(=O)c2ccc(-c3ccc(F)nc3C)cc2)c(O)n1[C@@H](CC)c1ccccc1F [Example 431, 2-butyl-5-[4-(6-fluoro-2-methylpyridin-3-yl)benzenesulfonyl]-1-[(1S)-1-(2-fluorophenyl)propyl]-6-hydroxy-1,4-dihydropyrimidin-4-one]
25 | 0.01 to 10 nM | CCCCc1nc(=O)c(S(=O)(=O)c2ccc(-c3ccnc(F)c3C)cc2)c(O)n1[C@@H](CC)c1ccccc1F [Example 432, 2-butyl-5-[4-(2-fluoro-3-methylpyridin-4-yl)benzenesulfonyl]-1-[(1S)-1-(2-fluorophenyl)propyl]-6-hydroxy-1,4-dihydropyrimidin-4-one]
26 | 0.01 to 10 nM | CCCCc1nc(=O)c(S(=O)(=O)c2ccc(-c3ccc(F)nc3C)cc2)c(O)n1[C@@H](CC)c1cc(F)cc(F)c1 [Example 433, 2-butyl-1-[(1S)-1-(3,5-difluorophenyl)propyl]-5-[4-(6-fluoro-2-methylpyridin-3-yl)benzenesulfonyl]-6-hydroxy-1,4-dihydropyrimidin-4-one]
